{"source": "patent US12275731B2", "about": "“Azaindole inhibitors of wild-type and mutant forms of LRRK2” (DANA-FARBER CANCER INSTITUTE, INC., priority 2018, dated 2025)", "assay_in_all_cases": "KinomeScan profiling", "format_in_all_cases": "binding", "key": {"AAK1": {"target": "T1, AAK1 (Homo sapiens, UniProt Q2M2I8)", "T1 construct": "purchased KinomeScan®", "settings": "AAK1, 1 μM; read-out: % control", "summary_of_the_method": "(§1)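 Normalised RLU (% control; DMSO 100%, positive control 0%) was measured for compounds dosed at 1 μM over 468 kinases, active cut-off <35%.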"}, "CSNK1G3": {"target": "CSNK1G3 (Homo sapiens, UniProt Q9Y6M4)", "sequence (Q9Y6M4 whole entry)": "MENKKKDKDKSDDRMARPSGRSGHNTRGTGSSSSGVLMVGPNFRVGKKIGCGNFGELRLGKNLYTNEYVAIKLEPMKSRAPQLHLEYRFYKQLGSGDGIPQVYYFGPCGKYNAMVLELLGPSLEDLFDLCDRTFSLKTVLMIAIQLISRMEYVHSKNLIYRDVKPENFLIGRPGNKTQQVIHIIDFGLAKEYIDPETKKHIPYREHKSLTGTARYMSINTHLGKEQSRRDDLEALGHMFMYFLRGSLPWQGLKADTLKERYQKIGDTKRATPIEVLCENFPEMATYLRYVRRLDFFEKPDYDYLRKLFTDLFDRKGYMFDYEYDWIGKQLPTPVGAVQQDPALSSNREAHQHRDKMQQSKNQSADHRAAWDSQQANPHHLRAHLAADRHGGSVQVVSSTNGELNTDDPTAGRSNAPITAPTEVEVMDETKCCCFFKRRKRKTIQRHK", "settings": "CSNK1G3, 1 μM; read-out: % control", "summary_of_the_method": "as §1"}, "DAPK3": {"target": "DAPK3 (Homo sapiens, UniProt O43293)", "sequence (O43293 whole entry)": "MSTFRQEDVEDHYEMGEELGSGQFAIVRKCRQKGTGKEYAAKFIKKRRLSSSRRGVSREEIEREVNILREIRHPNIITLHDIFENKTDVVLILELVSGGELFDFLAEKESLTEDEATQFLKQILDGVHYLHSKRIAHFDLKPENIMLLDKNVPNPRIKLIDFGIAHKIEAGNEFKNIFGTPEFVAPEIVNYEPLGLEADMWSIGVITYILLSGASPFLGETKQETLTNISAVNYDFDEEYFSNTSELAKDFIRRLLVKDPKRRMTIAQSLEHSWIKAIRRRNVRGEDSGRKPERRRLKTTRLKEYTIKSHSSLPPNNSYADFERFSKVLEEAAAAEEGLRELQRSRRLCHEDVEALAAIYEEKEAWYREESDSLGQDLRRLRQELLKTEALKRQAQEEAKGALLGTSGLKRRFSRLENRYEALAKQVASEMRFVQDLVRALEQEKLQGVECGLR", "settings": "DAPK3, 1 μM; read-out: % control", "summary_of_the_method": "as §1"}, "KIT(V559D, T670I)": {"target": "T2, KIT(V559D, T670I) (Homo sapiens, UniProt P10721, T670I/V559D)", "T2 construct": "purchased KinomeScan®", "T2 sequence (P10721 26-976 V559D/T670I)": "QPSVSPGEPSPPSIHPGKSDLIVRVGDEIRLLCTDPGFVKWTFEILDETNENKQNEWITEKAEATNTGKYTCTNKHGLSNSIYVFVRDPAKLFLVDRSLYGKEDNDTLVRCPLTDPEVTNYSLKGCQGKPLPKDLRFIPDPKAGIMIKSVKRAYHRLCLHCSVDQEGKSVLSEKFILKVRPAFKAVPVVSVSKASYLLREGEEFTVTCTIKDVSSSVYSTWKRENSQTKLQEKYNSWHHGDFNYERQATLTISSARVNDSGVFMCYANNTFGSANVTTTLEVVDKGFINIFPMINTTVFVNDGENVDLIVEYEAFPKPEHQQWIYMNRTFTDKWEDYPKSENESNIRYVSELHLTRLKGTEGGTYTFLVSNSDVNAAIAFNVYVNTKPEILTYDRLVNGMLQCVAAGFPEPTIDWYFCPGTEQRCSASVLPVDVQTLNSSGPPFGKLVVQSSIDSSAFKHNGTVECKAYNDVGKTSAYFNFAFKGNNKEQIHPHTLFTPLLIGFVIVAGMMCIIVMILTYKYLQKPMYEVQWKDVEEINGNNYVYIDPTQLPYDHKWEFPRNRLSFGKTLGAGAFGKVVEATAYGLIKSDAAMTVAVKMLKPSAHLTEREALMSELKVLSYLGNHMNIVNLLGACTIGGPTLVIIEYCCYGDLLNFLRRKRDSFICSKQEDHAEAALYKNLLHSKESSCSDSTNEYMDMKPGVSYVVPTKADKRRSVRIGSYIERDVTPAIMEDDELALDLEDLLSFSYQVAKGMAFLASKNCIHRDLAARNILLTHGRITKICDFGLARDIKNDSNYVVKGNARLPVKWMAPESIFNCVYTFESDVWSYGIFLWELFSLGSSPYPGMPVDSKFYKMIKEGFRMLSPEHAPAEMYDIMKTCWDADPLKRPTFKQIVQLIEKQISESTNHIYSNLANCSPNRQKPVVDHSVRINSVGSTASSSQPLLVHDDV", "settings": "read-out: % control", "summary_of_the_method": "as §1"}, "LIMK2": {"target": "LIMK2 (Homo sapiens, UniProt P53671)", "sequence (P53671 whole entry)": "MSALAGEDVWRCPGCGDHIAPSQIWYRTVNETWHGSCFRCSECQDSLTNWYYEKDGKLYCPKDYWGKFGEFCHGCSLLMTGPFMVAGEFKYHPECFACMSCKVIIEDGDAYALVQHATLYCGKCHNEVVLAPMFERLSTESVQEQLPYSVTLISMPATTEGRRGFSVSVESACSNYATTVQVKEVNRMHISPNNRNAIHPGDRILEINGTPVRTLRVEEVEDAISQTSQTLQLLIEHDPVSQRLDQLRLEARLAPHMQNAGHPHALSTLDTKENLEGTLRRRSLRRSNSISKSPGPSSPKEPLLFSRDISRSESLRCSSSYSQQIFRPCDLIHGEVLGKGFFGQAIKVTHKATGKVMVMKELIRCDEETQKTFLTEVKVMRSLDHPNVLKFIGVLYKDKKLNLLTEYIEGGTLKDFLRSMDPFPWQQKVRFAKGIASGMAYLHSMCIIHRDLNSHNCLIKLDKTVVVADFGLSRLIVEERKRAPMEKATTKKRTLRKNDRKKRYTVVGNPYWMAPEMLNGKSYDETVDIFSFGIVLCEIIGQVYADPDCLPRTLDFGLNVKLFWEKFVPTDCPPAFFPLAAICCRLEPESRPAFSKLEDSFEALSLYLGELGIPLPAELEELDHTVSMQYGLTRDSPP", "settings": "LIMK2, 1 μM; read-out: % control", "summary_of_the_method": "as §1"}, "MAP3K2": {"target": "T3, MAP3K2 (Homo sapiens, UniProt Q9Y2U5)", "T3 sequence (Q9Y2U5 1-619)": "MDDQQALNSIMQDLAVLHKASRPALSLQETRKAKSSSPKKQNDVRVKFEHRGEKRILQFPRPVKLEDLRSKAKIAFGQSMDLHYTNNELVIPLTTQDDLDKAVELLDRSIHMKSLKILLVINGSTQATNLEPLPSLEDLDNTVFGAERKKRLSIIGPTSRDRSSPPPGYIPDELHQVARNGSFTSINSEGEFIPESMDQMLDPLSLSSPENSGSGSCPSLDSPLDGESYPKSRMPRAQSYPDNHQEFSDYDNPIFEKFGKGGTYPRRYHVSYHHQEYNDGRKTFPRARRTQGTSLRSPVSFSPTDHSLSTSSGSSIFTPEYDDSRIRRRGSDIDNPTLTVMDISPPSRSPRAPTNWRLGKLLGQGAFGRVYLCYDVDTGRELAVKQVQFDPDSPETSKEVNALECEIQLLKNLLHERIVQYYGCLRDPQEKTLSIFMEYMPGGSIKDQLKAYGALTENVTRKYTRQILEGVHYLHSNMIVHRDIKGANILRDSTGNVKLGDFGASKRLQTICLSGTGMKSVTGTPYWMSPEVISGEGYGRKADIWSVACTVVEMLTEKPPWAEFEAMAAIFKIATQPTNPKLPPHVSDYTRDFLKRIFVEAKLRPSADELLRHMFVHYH", "settings": "MAP3K2, 1 μM; read-out: % control", "summary_of_the_method": "as §1"}, "PIK3C2G": {"target": "T4, PIK3C2G (Homo sapiens, UniProt O75747)", "T4 construct": "purchased KinomeScan® (panel service)", "T4 sequence (O75747 1-1486)": "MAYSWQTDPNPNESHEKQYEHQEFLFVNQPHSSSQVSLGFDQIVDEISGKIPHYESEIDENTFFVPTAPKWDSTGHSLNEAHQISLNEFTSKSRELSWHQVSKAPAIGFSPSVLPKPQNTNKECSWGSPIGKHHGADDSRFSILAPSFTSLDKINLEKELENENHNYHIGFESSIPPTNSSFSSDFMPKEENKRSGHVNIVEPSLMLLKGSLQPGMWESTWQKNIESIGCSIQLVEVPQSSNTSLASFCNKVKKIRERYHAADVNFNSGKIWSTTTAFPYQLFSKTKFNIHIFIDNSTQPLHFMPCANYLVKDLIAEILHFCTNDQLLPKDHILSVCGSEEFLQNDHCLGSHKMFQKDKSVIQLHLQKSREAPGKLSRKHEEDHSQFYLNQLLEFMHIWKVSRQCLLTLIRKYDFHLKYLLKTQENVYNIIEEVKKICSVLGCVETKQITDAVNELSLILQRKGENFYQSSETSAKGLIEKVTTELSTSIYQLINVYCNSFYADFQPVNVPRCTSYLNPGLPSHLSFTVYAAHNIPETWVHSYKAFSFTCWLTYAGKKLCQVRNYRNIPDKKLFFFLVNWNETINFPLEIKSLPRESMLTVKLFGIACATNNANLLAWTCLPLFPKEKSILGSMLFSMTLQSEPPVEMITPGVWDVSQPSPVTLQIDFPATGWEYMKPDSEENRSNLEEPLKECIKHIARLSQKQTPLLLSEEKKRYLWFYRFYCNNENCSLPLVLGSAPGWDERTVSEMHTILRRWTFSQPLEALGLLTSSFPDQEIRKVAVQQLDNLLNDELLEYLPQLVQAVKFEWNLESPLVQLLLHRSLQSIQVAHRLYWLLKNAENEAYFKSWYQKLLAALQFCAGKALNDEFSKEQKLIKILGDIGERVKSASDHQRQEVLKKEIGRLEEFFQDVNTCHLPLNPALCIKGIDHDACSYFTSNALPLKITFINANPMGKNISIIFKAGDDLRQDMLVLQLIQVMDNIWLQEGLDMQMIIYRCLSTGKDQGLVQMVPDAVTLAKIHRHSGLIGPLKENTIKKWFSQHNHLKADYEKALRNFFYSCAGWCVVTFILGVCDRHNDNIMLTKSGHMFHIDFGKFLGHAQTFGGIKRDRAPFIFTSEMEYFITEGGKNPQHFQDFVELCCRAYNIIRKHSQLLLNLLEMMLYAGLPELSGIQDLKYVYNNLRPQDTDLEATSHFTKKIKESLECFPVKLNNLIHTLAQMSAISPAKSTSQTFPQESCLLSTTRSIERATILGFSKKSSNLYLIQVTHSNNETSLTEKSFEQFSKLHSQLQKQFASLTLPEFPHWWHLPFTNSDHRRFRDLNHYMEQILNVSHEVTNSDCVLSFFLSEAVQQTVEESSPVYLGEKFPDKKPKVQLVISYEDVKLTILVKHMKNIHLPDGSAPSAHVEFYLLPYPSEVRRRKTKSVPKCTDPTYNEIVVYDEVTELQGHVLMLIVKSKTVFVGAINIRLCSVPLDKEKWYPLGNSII", "settings": "read-out: % control", "summary_of_the_method": "as §1"}}}
{"smiles": "CNc1c(-c2ccc(C(=O)N3CCC(N4CCOCC4)CC3)cc2)cnc2[nH]cc(Cl)c12", "note": "[Compound 96, (4-(3-chloro-4-(methylamino)-1H-pyrrolo[2,3-b]pyridin-5-yl)phenyl)(4-morpholinopiperidin-1-yl)methanone]", "values": [{"measurement": "remaining binding at 1 µM", "setting": "AAK1", "result": 23, "unit": "%"}, {"measurement": "remaining binding at 1 µM", "setting": "CSNK1G3", "result": 16, "unit": "%"}, {"measurement": "remaining binding at 1 µM", "setting": "DAPK3", "result": 96, "unit": "%"}, {"measurement": "remaining binding at 1 µM", "setting": "KIT(V559D, T670I)", "result": 27, "unit": "%"}, {"measurement": "remaining binding at 1 µM", "setting": "LIMK2", "result": 100, "unit": "%"}, {"measurement": "remaining binding at 1 µM", "setting": "MAP3K2", "result": 29, "unit": "%"}, {"measurement": "remaining binding at 1 µM", "setting": "PIK3C2G", "result": 94, "unit": "%"}]}
{"smiles": "O=C(c1ccc(-c2cnc3[nH]cc(Cl)c3c2NC2CCCC2)cc1)N1CCC(N2CCOCC2)CC1", "note": "[Compound 101, (4-(3-chloro-4-(cyclopentylamino)-1H-pyrrolo[2,3-b]pyridin-5-yl)phenyl)(4-morpholinopiperidin-1-yl)methanone]", "values": [{"measurement": "remaining binding at 1 µM", "setting": "AAK1", "result": 67, "unit": "%"}, {"measurement": "remaining binding at 1 µM", "setting": "CSNK1G3", "result": 93, "unit": "%"}, {"measurement": "remaining binding at 1 µM", "setting": "DAPK3", "result": 88, "unit": "%"}, {"measurement": "remaining binding at 1 µM", "setting": "KIT(V559D, T670I)", "result": 71, "unit": "%"}, {"measurement": "remaining binding at 1 µM", "setting": "LIMK2", "result": 99, "unit": "%"}, {"measurement": "remaining binding at 1 µM", "setting": "MAP3K2", "result": 35, "unit": "%"}, {"measurement": "remaining binding at 1 µM", "setting": "PIK3C2G", "result": 92, "unit": "%"}]}
{"smiles": "CNc1c(-c2cnn([C@H]3CCN(C(C)=O)C[C@@H]3F)c2)cnc2[nH]cc(Cl)c12", "note": "[Compound 77, 1-((3S,4S)-4-(4-(3-chloro-4-(methylamino)-1H-pyrrolo[2,3-b]pyridin-5-yl)-1H-pyrazol-1-yl)-3-fluoropiperidin-1-yl)ethan-1-one]", "values": [{"measurement": "remaining binding at 1 µM", "setting": "AAK1", "result": 36, "unit": "%"}, {"measurement": "remaining binding at 1 µM", "setting": "CSNK1G3", "result": 24, "unit": "%"}, {"measurement": "remaining binding at 1 µM", "setting": "DAPK3", "result": 79, "unit": "%"}, {"measurement": "remaining binding at 1 µM", "setting": "KIT(V559D, T670I)", "result": 9.7, "unit": "%"}, {"measurement": "remaining binding at 1 µM", "setting": "LIMK2", "result": 97, "unit": "%"}, {"measurement": "remaining binding at 1 µM", "setting": "MAP3K2", "result": 25, "unit": "%"}, {"measurement": "remaining binding at 1 µM", "setting": "PIK3C2G", "result": 100, "unit": "%"}]}
